Among the data in ChEMBL document CHEMBL4428105, “Conformational and electrostatic analysis of SN1 donor analogue glycomimetic inhibitors of ST3Gal-I mammalian sialyltransferase” (Bioorg Med Chem, 2016) are IC50 values, retold here.

Structures are written as SMILES.

The nature of the test: Inhibition of rat recombinant ST3Gal-1 using CMP-Neu5Ac as substrate after 20 mins by fluorescence based reverse phase HPLC analysis.
As usually defined, the IC50 is the concentration at which inhibition is half-maximal. In the case of `CC(=O)N[C@H]1[C@H]([C@H](O)[C@H](O)CO)O[C@@](CO)(CCP(=O)(O)OC[C@H]2O[C@@H](n3ccc(N)nc3=O)[C@H](O)[C@@H]2O)C[C@@H]1O`, the half-inhibitory concentration (IC50) is 4.2 mM.

As for `CC(=O)N[C@H]1[C@H]([C@H](O)[C@H](O)CO)O[C@](CCP(=O)(O)OC[C@H]2O[C@@H](n3ccc(N)nc3=O)[C@H](O)[C@@H]2O)(C(N)=O)C[C@@H]1O`, the IC50 was 3.3 mM.

As to `CC(=O)N[C@H]1[C@H]([C@H](O)[C@H](O)CO)O[C@](CCP(=O)(O)OC[C@H]2O[C@@H](n3ccc(N)nc3=O)[C@H](O)[C@@H]2O)(C(=O)O)C[C@@H]1O`, the IC50 is 0.047 mM.
